The source of these data is patent publication US12083101B2, “Biaryl derivatives as YAP/TAZ-TEAD protein-protein interaction inhibitors” (Novartis AG, priority 2020, dated 2024).

Usually IC50 stands for the concentration at which inhibition is half-maximal. A low value points to greater potency in that assay.

Where a name gives a salt, the structure may show the parent alone.

Sequence of Avi-humanTEAD4 217-434 / Cy5 labeled humanYAP 60-100 (Q15561 217-434): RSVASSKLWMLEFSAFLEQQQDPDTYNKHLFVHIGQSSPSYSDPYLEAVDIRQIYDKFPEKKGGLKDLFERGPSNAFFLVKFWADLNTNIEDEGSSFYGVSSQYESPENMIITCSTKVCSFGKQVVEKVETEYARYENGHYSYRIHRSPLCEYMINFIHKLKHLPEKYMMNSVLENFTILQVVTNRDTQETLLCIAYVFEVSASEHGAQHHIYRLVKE

The experiment has as its target Avi-humanTEAD4 217-434 / Cy5 labeled humanYAP 60-100 (Homo sapiens (Human), UniProt Q15561). As to the kind of experiment: TR-FRET YAP-TEAD4 in-vitro biochemical assay. Type of experiment: binding. The conditions noted are these: 1 nM Avi-humanTEAD4 217-434, 20 nM Cy5-humanYAP 60-100, 1 h room temperature. The protocol:
N-terminus Cy5 labeled humanYAP^60-100 (20 nM) was then added to this preparation. Compounds were dissolved at 10 mM in 100% DMSO and serial dilutions were made in 100% DMSO. The diluted compound solutions were incubated in white 384-well plates (Greiner Bio-One) for 1 h at room temperature with the above described mix. The final DMSO concentration present in the assay was 1%. […] The IC50 values were estimated by fitting the data by nonlinear fit regression (GraphPad Prism).
A general note: In TR-FRET formats the signal depends on donor and acceptor labels being close together.
With `Cc1cccc(C(N)=O)c1-c1c(Cl)ccc2c1C[C@@](CN)(c1ccccc1)O2` (atropisomer, axis not shown) [Example 6, 2-((2S,4R)-2-(aminomethyl)-5-chloro-2-phenyl-2,3-dihydrobenzofuran-4-yl)-3-methylbenzamide], the IC50 was 376 nM. In other words, the sub-micromolar range. `NC[C@@]1(c2ccccc2)Cc2c(ccc(Cl)c2-c2c(Cl)cccc2C(N)=O)O1` (atropisomer, axis not shown) [Example 7, 2-((2S,4S)-2-(aminomethyl)-5-chloro-2-phenyl-2,3-dihydrobenzofuran-4-yl)-3-chlorobenzamide trifluoroacetate salt] gave an IC50 of 65 nM. Regarding `NC[C@@]1(c2ccccc2)Cc2c(ccc(Cl)c2-c2c(C(N)=O)ccc(Cl)c2F)O1` (atropisomer, axis not shown) [Example 8, 2-((2S,4S)-2-(aminomethyl)-5-chloro-2-phenyl-2,3-dihydrobenzofuran-4-yl)-4-chloro-3-fluorobenzamide], the 50% inhibitory concentration (IC50) was found to be 4 nM. The molecule `NC[C@@]1(c2ccccc2)Cc2c(ccc(Cl)c2-c2c(C(N)=O)ccc(F)c2F)O1` (atropisomer, axis not shown) [Example 9, 2-((2S,4S)-2-(aminomethyl)-5-chloro-2-phenyl-2,3-dihydrobenzofuran-4-yl)-3,4-difluorobenzamide] gave an IC50 of 4 nM. As for `NC[C@@]1(c2ccccc2)Cc2c(ccc(Cl)c2-c2c(C(N)=O)ccc(OCC(=O)O)c2F)O1` (atropisomer, axis not shown) [Example 16, 2-(3-((2S,4S)-2-(aminomethyl)-5-chloro-2-phenyl-2,3-dihydrobenzofuran-4-yl)-4-carbamoyl-2-fluorophenoxy)acetic acid trifluoroacetate salt], the midpoint of inhibition, the IC50, lay at 6 nM. In turn, `CC(=O)N1CCO[C@@H](COc2ccc(C(N)=O)c(-c3c(Cl)ccc4c3C[C@@](CN)(c3ccccc3)O4)c2F)C1` (atropisomer, axis not shown) [Example 17, 4-(((R)-4-acetylmorpholin-2-yl)methoxy)-2-((2S,4S)-2-(aminomethyl)-5-chloro-2-phenyl-2,3-dihydrobenzofuran-4-yl)-3-fluorobenzamide] returned an IC50 of 13 nM. Against the preceding molecule, the IC50 is about 2.2-fold higher. In the case of `NC[C@@]1(c2ccccc2)Cc2c(ccc(Cl)c2-c2c(C(N)=O)cnc(OC(F)F)c2F)O1` (atropisomer, axis not shown) [Example 19, 4-((2S,4S)-2-(Aminomethyl)-5-chloro-2-phenyl-2,3-dihydrobenzofuran-4-yl)-6-(difluoromethoxy)-5-fluoronicotinamide] it was 3 nM; in that of `COc1ccc(C(=O)NC2CC2)c(-c2c(Cl)ccc3c2C[C@@](CN)(c2ccccc2)O3)c1F` (atropisomer, axis not shown) [Example 23, 2-((2S,4S)-2-(aminomethyl)-5-chloro-2-phenyl-2,3-dihydrobenzofuran-4-yl)-N-cyclopropyl-3-fluoro-4-methoxybenzamide], 9 nM; in that of `Cn1nccc1NC(=O)c1ccc(F)c(F)c1-c1c(Cl)ccc2c1C[C@@](CN)(c1ccccc1)O2` (atropisomer, axis not shown) [Example 24, 2-((2S,4S)-2-(aminomethyl)-5-chloro-2-phenyl-2,3-dihydrobenzofuran-4-yl)-3,4-difluoro-N-(1-methyl-1H-pyrazol-5-yl)benzamide], 6 nM. In turn, `NC[C@@]1(c2ccccc2)Cc2c(cc(F)c(Cl)c2-c2c(C(N)=O)ccc(OC(F)(F)CO)c2F)O1` (atropisomer, axis not shown) [Example 36, 2-((2S,4S)-2-(aminomethyl)-5-chloro-6-fluoro-2-phenyl-2,3-dihydrobenzofuran-4-yl)-4-(1,1-difluoro-2-hydroxyethoxy)-3-fluorobenzamide] had a 50% inhibitory concentration (IC50) of 10 nM. Compared with the last molecule, the IC50 is about 1.7-fold higher. The molecule `CS(=O)(=O)COc1ccc(C(N)=O)c(-c2c(Cl)c(F)cc3c2C[C@@](CN)(c2ccccc2)O3)c1F` (atropisomer, axis not shown) [Example 40, 2-((2S,4S)-2-(aminomethyl)-5-chloro-6-fluoro-2-phenyl-2,3-dihydrobenzofuran-4-yl)-3-fluoro-4-((methylsulfonyl)methoxy)benzamide] showed an IC50 of 42 nM. Against the preceding molecule, the IC50 is about 4.2-fold higher.

For `NC[C@@]1(c2ccccc2)Cc2c(cc(F)c(Cl)c2-c2c(C(N)=O)ccc(OCCC(F)F)c2F)O1` (atropisomer, axis not shown) [Example 41, 2-((2S,4S)-2-(aminomethyl)-5-chloro-6-fluoro-2-phenyl-2,3-dihydrobenzofuran-4-yl)-4-(3,3-difluoropropoxy)-3-fluorobenzamide], the IC50 is 89 nM. `CNC(=O)c1cnc(OCCO)c(F)c1-c1c(Cl)c(F)cc2c1C[C@@](CN)(c1ccccc1)O2` (atropisomer, axis not shown) [Example 45, 4-((2S,4S)-2-(Aminomethyl)-5-chloro-6-fluoro-2-phenyl-2,3-dihydrobenzofuran-4-yl)-5-fluoro-6-(2-hydroxyethoxy)-N-methylnicotinamide] showed an IC50 of 10 nM. On to `CNC[C@@]1(c2ccccc2)Cc2c(cc(F)c(Cl)c2-c2c(C(N)=O)ccc(OC)c2F)O1` (atropisomer, axis not shown) [Example 46, 2-((2S,4S)-5-Chloro-6-fluoro-2-((methylamino)methyl)-2-phenyl-2,3-dihydrobenzofuran-4-yl)-3-fluoro-4-methoxybenzamide], for which 3 nM corresponded to half-maximal inhibition (IC50). Consider `CNC[C@@]1(c2ccccc2)Cc2c(cc(F)c(Cl)c2-c2c(C(N)=O)cnc(OCCO)c2F)O1` (atropisomer, axis not shown) [Example 49, 4-((2S,4S)-5-Chloro-6-fluoro-2-((methylamino)methyl)-2-phenyl-2,3-dihydrobenzofuran-4-yl)-5-fluoro-6-(2-hydroxyethoxy)nicotinamide], for which the IC50 amounted to 5 nM.

In turn, `NC(=O)c1ccc(OC(F)F)c(F)c1-c1c(Cl)c(F)cc2c1C[C@@](CNCC1CC1)(c1ccccc1)O2` (atropisomer, axis not shown) [Example 50, 2-((2S,4S)-5-Chloro-2-(((cyclopropylmethyl)amino)methyl)-6-fluoro-2-phenyl-2,3-dihydrobenzofuran-4-yl)-4-(difluoromethoxy)-3-fluorobenzamide] registered an IC50 of 30 nM. Against the preceding molecule, the IC50 is about 6-fold higher. On to `CNC[C@@]1(c2ccccc2)Cc2c(cc(F)c(Cl)c2-c2c(C(=O)NC)cnc(OCCO)c2F)O1` (atropisomer, axis not shown) [Example 53, 4-((2S,4S)-5-chloro-6-fluoro-2-((methylamino)methyl)-2-phenyl-2,3-dihydrobenzofuran-4-yl)-5-fluoro-6-(2-hydroxyethoxy)-N-methylnicotinamide], for which the IC50 was 6 nM. Take `CN(C)C(=O)CN1CCC(NC[C@@]2(c3ccccc3)Cc3c(cc(F)c(Cl)c3-c3c(C(N)=O)ccc(OC(F)F)c3F)O2)CC1` (atropisomer, axis not shown) [Example 60, 2-((2S,4S)-5-chloro-2-(((1-(2-(dimethylamino)-2-oxoethyl)piperidin-4-yl)amino)methyl)-6-fluoro-2-phenyl-2,3-dihydrobenzofuran-4-yl)-4-(difluoromethoxy)-3-fluorobenzamide]: the midpoint of inhibition, the IC50, lay at 20 nM.

With `CS(=O)(=O)N1CCC(NC[C@@]2(c3ccccc3)Cc3c(cc(F)c(Cl)c3-c3c(C(N)=O)ccc(OC(F)F)c3F)O2)CC1` (atropisomer, axis not shown) [Example 63, 2-((2S,4S)-5-chloro-6-fluoro-2-(((1-(methylsulfonyl)piperidin-4-yl)amino)methyl)-2-phenyl-2,3-dihydrobenzofuran-4-yl)-4-(difluoromethoxy)-3-fluorobenzamide], half-maximal inhibition (IC50) was put at 69 nM.

Take `C[C@@H]1C[C@H](NC[C@@]2(c3ccccc3)Cc3c(cc(F)c(Cl)c3-c3c(C(N)=O)ccc(OCCO)c3F)O2)C[C@H](C)O1` (atropisomer, axis not shown) [Example 65a, 2-((2S,4S)-5-chloro-2-((((2R,4r,6S)-2,6-dimethyltetrahydro-2H-pyran-4-yl)amino)methyl)-6-fluoro-2-phenyl-2,3-dihydrobenzofuran-4-yl)-3-fluoro-4-(2-hydroxyethoxy)benzamide]: the IC50 is 4 nM. Compared with the last molecule, the IC50 is about 17-fold lower.

`C[C@@H]1C[C@@H](NC[C@@]2(c3ccccc3)Cc3c(cc(F)c(Cl)c3-c3c(C(N)=O)ccc(OCCO)c3F)O2)C[C@H](C)O1` (atropisomer, axis not shown) [Example 65b, 2-((2S,4S)-5-chloro-2-((((2R,4s,6S)-2,6-dimethyltetrahydro-2H-pyran-4-yl)amino)methyl)-6-fluoro-2-phenyl-2,3-dihydrobenzofuran-4-yl)-3-fluoro-4-(2-hydroxyethoxy)benzamide]: the IC50 amounted to 455 nM. As to `COc1ncc(C(N)=O)c(-c2c(Cl)c(F)cc3c2C[C@@](CN[C@H]2CC[C@](C)(O)CC2)(c2ccccc2)O3)c1F` (atropisomer, axis not shown) [Example 66a, 4-((2S,4S)-5-chloro-6-fluoro-2-((((trans)-4-hydroxy-4-methylcyclohexyl)amino)methyl)-2-phenyl-2,3-dihydrobenzofuran-4-yl)-5-fluoro-6-methoxynicotinamide], half-maximal inhibition (IC50) required 2 nM. `COc1ncc(C(N)=O)c(-c2c(Cl)c(F)cc3c2C[C@@](CN[C@H]2CC[C@@](C)(O)CC2)(c2ccccc2)O3)c1F` (atropisomer, axis not shown) [Example 66b, 4-((2S,4S)-5-chloro-6-fluoro-2-((((cis)-4-hydroxy-4-methylcyclohexyl)amino)methyl)-2-phenyl-2,3-dihydrobenzofuran-4-yl)-5-fluoro-6-methoxynicotinamide]: the midpoint of inhibition, the IC50, lay at 2 nM.
